Test results from ChEMBL document CHEMBL1201862, “PubChem BioAssay data set” (2004).
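Growth conditions: 96-well plates. Treatment: test compound, 48 hours, 5 concentrations. Analysis: linear interpolation between bracketing concentrations; unreached endpoints set to highest concentration. Here, GI50 denotes the concentration required for 50% inhibition of growth.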 The source made the active and inactive calls. Rule as the data show it: active = GI50 up to about 1.1 µM and inactive = higher.

What was measured:
Assay in all cases: NCI anticancer screen, dose series, 48 h
SK-OV-3 = test system: SK-OV-3
SNB-19 = test system: SNB-19
UACC-62 = test system: UACC-62
Hs-578T = test system: Hs-578T
NCI-H23 = test system: NCI-H23
SF-295 = test system: SF-295
TK-10 = test system: TK-10
MDA-N = test system: MDA-N
MCF7 = test system: MCF7
HCT-116 = test system: HCT-116
HCC 2998 = test system: HCC 2998
T47D = test system: T47D
HOP-92 = test system: HOP-92
SK-MEL-5 = test system: SK-MEL-5
MOLT-4 = test system: MOLT-4
M14 = test system: M14
HOP-62 = test system: HOP-62
A498 = test system: A498
HL-60 = test system: HL-60
K562 = test system: K562

Measured: GI50

COC(=O)C(C(=O)C(=O)Nc1ccccc1C#N)c1nc2ccc([N+](=O)[O-])cc2nc1O (stereo unspecified)
inactive: SK-OV-3 > 100 µM | SNB-19 > 100 µM | UACC-62 > 100 µM | Hs-578T > 100 µM | NCI-H23 > 100 µM | SF-295 > 100 µM | TK-10 > 100 µM | MDA-N > 100 µM | MCF7 > 100 µM | HCT-116 > 100 µM | HCC 2998 > 100 µM | T47D > 100 µM | HOP-92 > 100 µM | SK-MEL-5 > 100 µM | MOLT-4 > 100 µM | M14 > 100 µM | HOP-62 > 100 µM

Cc1ccc(Nc2nc3c(=O)n(C)c(=O)n(C)c3nc2Nc2ccc(C)cc2)cc1
inactive: SK-OV-3 21.9 µM | SNB-19 31.3 µM | UACC-62 12.3 µM | Hs-578T 25.8 µM | NCI-H23 15.9 µM | SF-295 20.8 µM | TK-10 16.4 µM | MDA-N 11.3 µM | A498 16.5 µM | HL-60 9.66 µM | HCT-116 9.27 µM | HCC 2998 17.5 µM | K562 6.56 µM | T47D 15.5 µM | HOP-92 11.4 µM | SK-MEL-5 16.4 µM | MOLT-4 14.8 µM | HOP-62 18.9 µM

O=C1C(Cl)C(c2cccc(Cl)c2)N1c1ccc(-n2c(S)nc3ccccc3c2=O)cc1 (stereo unspecified)
inactive: SK-OV-3 20.6 µM | SNB-19 2.47 µM | UACC-62 14.8 µM | Hs-578T 20.2 µM | NCI-H23 19.6 µM | SF-295 19.2 µM | TK-10 29.6 µM | MDA-N 19.1 µM | MCF7 14.7 µM | HL-60 22.1 µM | HCT-116 24.4 µM | HCC 2998 14.4 µM | K562 17.9 µM | T47D 31.8 µM | HOP-92 19.9 µM | SK-MEL-5 15.1 µM | MOLT-4 14 µM | M14 19.5 µM | HOP-62 23.9 µM

Cc1ccc(Cc2cc(N3CCN(c4cccc(Cl)c4)CC3)nnc2C)cc1
inactive: SK-OV-3 > 100 µM | SNB-19 > 100 µM | UACC-62 > 100 µM | Hs-578T 54 µM | NCI-H23 37.7 µM | SF-295 42.9 µM | TK-10 > 100 µM | MDA-N 16.4 µM | MCF7 76.2 µM | A498 > 100 µM | HCT-116 22.5 µM | T47D 24.3 µM | SK-MEL-5 11.5 µM | M14 > 100 µM | HOP-62 > 100 µM

CCn1c(-c2ccccc2)cs/c1=N\C(P(=O)(O)O)P(=O)(O)O
inactive: SK-OV-3 > 100 µM | SNB-19 > 100 µM | UACC-62 > 100 µM | Hs-578T > 100 µM | NCI-H23 > 100 µM | SF-295 > 100 µM | TK-10 > 100 µM | MDA-N > 100 µM | MCF7 > 100 µM | A498 > 100 µM | HL-60 > 100 µM | HCT-116 > 100 µM | HCC 2998 > 100 µM | K562 > 100 µM | HOP-92 > 100 µM | SK-MEL-5 > 100 µM | MOLT-4 > 100 µM | M14 > 100 µM | HOP-62 > 100 µM

N#Cc1ccc(-c2nc3c(N)ncnc3o2)cc1
inactive: SNB-19 > 100 µM | UACC-62 > 100 µM | Hs-578T > 100 µM | NCI-H23 > 100 µM | SF-295 > 100 µM | TK-10 > 100 µM | MDA-N > 100 µM | MCF7 > 100 µM | A498 > 100 µM | HL-60 > 100 µM | HCT-116 > 100 µM | HCC 2998 > 100 µM | K562 > 100 µM | T47D > 100 µM | SK-MEL-5 > 100 µM | MOLT-4 > 100 µM | M14 > 100 µM | HOP-62 84.7 µM

COC(=O)C1=Nc2c(C)nn(-c3ccccc3)c2N=C(c2ccc(C)cc2)C1
inactive: SK-OV-3 > 10 µM | SNB-19 > 10 µM | UACC-62 > 10 µM | Hs-578T > 10 µM | NCI-H23 > 10 µM | SF-295 > 10 µM | TK-10 > 10 µM | MDA-N > 10 µM | MCF7 > 10 µM | HL-60 > 10 µM | HCT-116 > 10 µM | HCC 2998 > 10 µM | K562 > 10 µM | T47D > 10 µM | HOP-92 > 10 µM | SK-MEL-5 > 10 µM | MOLT-4 > 10 µM | M14 > 10 µM | HOP-62 > 10 µM

COc1cc(S(=O)(=O)Nc2ccc(-c3csc(N)n3)cc2)ccc1Cl
inactive: SNB-19 19.5 µM | UACC-62 15.2 µM | Hs-578T 53.7 µM | NCI-H23 21.2 µM | MDA-N 19.4 µM | MCF7 15.2 µM | A498 18.2 µM | HL-60 15 µM | HCT-116 16.2 µM | K562 18.5 µM | T47D 7.87 µM | HOP-92 22.6 µM | SK-MEL-5 16.6 µM | MOLT-4 11.1 µM | M14 18.6 µM

N#C/C(=C\Nc1ccccn1)C(=O)c1ccco1
inactive: SK-OV-3 > 100 µM | SNB-19 > 100 µM | UACC-62 > 100 µM | Hs-578T > 100 µM | NCI-H23 > 100 µM | SF-295 > 100 µM | TK-10 > 100 µM | MDA-N > 100 µM | MCF7 > 100 µM | A498 > 100 µM | HL-60 > 100 µM | HCT-116 > 100 µM | HCC 2998 > 100 µM | K562 > 100 µM | HOP-92 > 100 µM | SK-MEL-5 > 100 µM | MOLT-4 39.6 µM | M14 > 100 µM | HOP-62 > 100 µM

COc1ccc(C2C3COc4ccccc4C3=NN2c2ccccc2)cc1 (stereo unspecified)
inactive: SK-OV-3 > 100 µM | SNB-19 > 100 µM | UACC-62 > 100 µM | Hs-578T > 100 µM | NCI-H23 > 100 µM | SF-295 > 100 µM | TK-10 > 100 µM | MDA-N > 100 µM | MCF7 63.8 µM | A498 > 100 µM | HCT-116 > 100 µM | K562 > 100 µM | T47D 48.8 µM | HOP-92 > 100 µM | SK-MEL-5 > 100 µM | MOLT-4 92.5 µM | M14 > 100 µM | HOP-62 > 100 µM

CC1CNc2ccccc2N=C1NN (stereo unspecified)
inactive: SK-OV-3 > 100 µM | SNB-19 > 100 µM | UACC-62 > 100 µM | Hs-578T > 100 µM | NCI-H23 > 100 µM | SF-295 > 100 µM | TK-10 > 100 µM | MDA-N > 100 µM | MCF7 > 100 µM | A498 > 100 µM | HCT-116 > 100 µM | HCC 2998 > 100 µM | K562 > 100 µM | T47D > 100 µM | SK-MEL-5 > 100 µM | M14 > 100 µM | HOP-62 > 100 µM

C=C(CO)[C@H]1CC/C(C)=C/CC/C(C)=C/C/C=C(\C)[C@H](O)C1
inactive: SK-OV-3 > 100 µM | SNB-19 47.4 µM | UACC-62 23 µM | Hs-578T 25.5 µM | NCI-H23 29.2 µM | SF-295 34.8 µM | TK-10 20.6 µM | MDA-N 34.5 µM | MCF7 26 µM | HCT-116 26.9 µM | HCC 2998 15.2 µM | K562 37.8 µM | T47D 48 µM | HOP-92 19.8 µM | SK-MEL-5 18.9 µM | MOLT-4 18.3 µM | HOP-62 > 100 µM

COc1ccc(NC(=S)Nc2cc(C)cc(C)n2)cc1
inactive: SK-OV-3 > 100 µM | SNB-19 > 100 µM | UACC-62 > 100 µM | Hs-578T > 100 µM | SF-295 > 100 µM | TK-10 > 100 µM | MDA-N > 100 µM | MCF7 > 100 µM | A498 > 100 µM | HL-60 > 100 µM | HCT-116 > 100 µM | K562 > 100 µM | T47D > 100 µM | SK-MEL-5 > 100 µM | MOLT-4 > 100 µM | M14 > 100 µM | HOP-62 > 100 µM

S=c1nc(Nc2ccccc2)c2c3c(sc2[nH]1)CCCC3
inactive: SNB-19 > 100 µM | UACC-62 > 100 µM | Hs-578T > 100 µM | NCI-H23 > 100 µM | SF-295 > 100 µM | TK-10 > 100 µM | MDA-N > 100 µM | MCF7 > 100 µM | A498 > 100 µM | HL-60 > 100 µM | HCT-116 > 100 µM | HCC 2998 > 100 µM | K562 > 100 µM | T47D > 100 µM | SK-MEL-5 > 100 µM | MOLT-4 > 100 µM | HOP-62 > 100 µM

C/C(CC(O)(C(F)(F)Cl)C(F)(F)Cl)=N\Nc1ccccc1
inactive: SK-OV-3 29.4 µM | SNB-19 36.9 µM | UACC-62 43.3 µM | Hs-578T 27.2 µM | NCI-H23 19.3 µM | SF-295 42.3 µM | TK-10 38.4 µM | MDA-N 43.6 µM | MCF7 23.2 µM | A498 40 µM | HL-60 22.5 µM | HCT-116 34.5 µM | K562 35.5 µM | T47D 28.2 µM | HOP-92 21.7 µM | SK-MEL-5 19.1 µM | MOLT-4 23.4 µM | M14 29.4 µM

CC1CCCc2c(C#N)c(N)nc(-c3ccc(Cl)cc3)c21 (stereo unspecified)
inactive: SK-OV-3 38.1 µM | SNB-19 39.4 µM | UACC-62 15.8 µM | Hs-578T 32.4 µM | NCI-H23 16.8 µM | SF-295 18.3 µM | TK-10 29.8 µM | MDA-N 31 µM | MCF7 19.6 µM | A498 68.4 µM | HL-60 18.1 µM | HCT-116 20.7 µM | K562 8.69 µM | T47D 5.96 µM | SK-MEL-5 9.38 µM | MOLT-4 7.69 µM | M14 19.2 µM | HOP-62 5.73 µM
